Values belong to the compound of their own block, whether it stands above or below them.
Tested on: 598228-144-R-J1-PDC complex spheroid viability
Assay: Anticancer human tumor 598228-144-R-J1-PDC patient-derived serous endometrial adenocarcinoma cell line growth inhibition [GQUAD]
Settings: for IC50: curve of first compound; for viability, T/C: stronger effect = lower value
Text: DNA G-quadruplex Stabilizer Agents in Combinations in Complex Spheroids
A high-throughput screen of multi-cell type tumor spheroids was designed to identify active combinations of DNA G-quadruplex stabilizer agents and targeted small molecules. Complex spheroids include a stromal component modeled by human endothelial cells (HUVEC) and fibroblasts modeled by human mesenchymal stem cells (MSCs). The concentration ranges selected for each drug and investigational agent were based upon clinically achievable concentrations if the clinical Cmax of the agent was known.
Compounds. The drugs and investigational agents: pidnarulex (CX-5461; NSC782164), APTO-253 (NSC789042), BRACO-19 (NSC847499), peposertib (NSC802822), ceralasertib (NSC780249), elimusertib (NSC800525), camonsertib (NSC841442), AZD-1390 (NSC803789), olaparib (NSC753686), talazoparib (NSC767125), ART-558 (NSC835418), sotorasib (NSC818433), MRTX-1133 (NSC836407), SN-38 (NSC673596), topotecan (NSC609699), etoposide (NSC141540), doxorubicin (NSC123127), gemcitabine (NSC613327), 5-fluorouracil (NSC19893), paclitaxel (NSC125973), vemurafenib (NSC761431), panobinostat (NSC761190), R-306465 (JNJ-16241199; NSC773264), adavosertib (NSC754352), TP-3654 (NSC805149), carboplatin (NSC241240), KSQ-4279 (NSC840948), and staurosporine (NSC755774) were obtained from the National Cancer Institute (NCI) Developmental Therapeutics Program Chemical Repository (34). The FDA-approved anticancer drug set is available from the NCI Developmental Therapeutics Program. […] The stock solutions were prepared in dimethyl sulfoxide (DMSO, Sigma-Aldrich, St. Louis, MO, cat. D2650) at 800-fold the tested concentration and stored at -70 degrees C prior to their use. All drugs and investigational agents were tested over a range starting from a high concentration at or near the clinical Cmax and decreasing in half-log increments. If the clinical Cmax for an agent had not been determined, the highest concentration tested was 10 microM.
2.3 Cell Culture. All cells were maintained in an incubator at 37 degrees C and 5% CO2 with 95% humidity. The PDC lines were cultured according to standard operating procedures established by the NCI PDMR. All PDCs were thawed and cultured in Matrigel-coated flasks prepared with a working solution of 1X Ham's F-12 nutrient mix, without supplementation (Invitrogen, cat. 11765054), 100 U/mL penicillin-streptomycin (Invitrogen, cat. 15140122), and 2.5% Matrigel (Corning Inc., cat. 354248) for the first three passages. The 857933-349-R-J2-PDC line was cultured in 6C/Colon 1B media, which includes advanced DMEM/F-12 (Thermo Fisher Scientific, cat. 12634028), 10 mM HEPES (Thermo Fisher Scientific, cat. 15630080), 1X GlutaMAX supplement (Thermo Fisher Scientific, cat. 35050061), 0.1 mg/mL primocin (InvivoGen, cat. ant-pm-2), 10% defined fetal bovine serum, heat inactivated (HyClone Laboratories Inc., cat. SH30070.03HI), 50% L-WRN conditioned media (ATCC, cat. CRL-3276), 1.25 mM N-Acetyl-L-cysteine (Sigma-Aldrich, cat. A9165), 10 mM nicotinamide (Sigma-Aldrich, cat. N0636), 1X B-27 supplement (Thermo Fisher Scientific, cat. 17504044), 1X N-2 supplement (Thermo Fisher Scientific, cat. 17502048), 10 microM Y-27632 dihydrochloride (Tocris Bioscience, cat. 1254), and 50 ng/mL human EGF recombinant protein (Thermo Fisher Scientific, cat. PHG0311). The 485176-168-R4-J1-PDC line was cultured in Panc media, which includes all 6C/Colon 1B media components plus 100 ng/mL human FGF-10 (Thermo Fisher Scientific, cat. 100-26), 500 nM SB-431542 (Selleckchem, cat. S1067), and gastrin (Tocris, cat. 3006).
[…]

[1] = second compound 0.0316 µM, first compound 0.0316 µM
[2] = second compound 0.0316 µM, first compound 0.1 µM
[3] = second compound 0.0316 µM, first compound 0.316 µM
[4] = second compound 0.0316 µM, first compound 1 µM
[5] = second compound 0.0316 µM, first compound 3.16 µM
[6] = second compound 0.0316 µM, first compound 10 µM
[7] = second compound 0.1 µM, first compound 0.0316 µM
[8] = second compound 0.1 µM, first compound 0.1 µM
[9] = second compound 0.1 µM, first compound 0.316 µM
[10] = second compound 0.1 µM, first compound 1 µM
[11] = second compound 0.1 µM, first compound 3.16 µM
[12] = second compound 0.1 µM, first compound 10 µM
[13] = second compound 0.316 µM, first compound 0.0316 µM
[14] = second compound 0.316 µM, first compound 0.1 µM
[15] = second compound 0.316 µM, first compound 0.316 µM
[16] = second compound 0.316 µM, first compound 1 µM
[17] = second compound 0.316 µM, first compound 3.16 µM
[18] = second compound 0.316 µM, first compound 10 µM
[19] = second compound 1 µM, first compound 0.0316 µM
[20] = second compound 1 µM, first compound 0.1 µM
[21] = second compound 1 µM, first compound 0.316 µM
[22] = second compound 1 µM, first compound 1 µM
[23] = second compound 1 µM, first compound 3.16 µM
[24] = second compound 1 µM, first compound 10 µM
[25] = second compound 3.16 µM, first compound 0.0316 µM
[26] = second compound 3.16 µM, first compound 0.1 µM
[27] = second compound 3.16 µM, first compound 0.316 µM
[28] = second compound 3.16 µM, first compound 1 µM
[29] = second compound 3.16 µM, first compound 3.16 µM
[30] = second compound 3.16 µM, first compound 10 µM
[31] = second compound 10 µM, first compound 0.0316 µM
[32] = second compound 10 µM, first compound 0.1 µM
[33] = second compound 10 µM, first compound 0.316 µM
[34] = second compound 10 µM, first compound 1 µM
[35] = second compound 10 µM, first compound 3.16 µM
[36] = second compound 10 µM, first compound 10 µM
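Note: spheroids exposed to the agents for one week before reading.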
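Throughout, for viability, T/C: percent of vehicle DMSO control viability so 100% = untreated growth.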

IC50 (second compound 0.0316 µM): < 0.0316 µM | IC50 (second compound 0.1 µM): < 0.0316 µM | IC50 (second compound 0.316 µM): 0.533 µM | IC50 (second compound 1 µM): 7.49 µM | IC50 (second compound 3.16 µM): < 0.0316 µM | IC50 (second compound 10 µM): < 0.0316 µM
SMILES: CC(=O)O[C@H]1C(=O)[C@@]2(C)[C@H]([C@H](OC(=O)c3ccccc3)[C@]3(O)C[C@H](OC(=O)[C@H](O)[C@@H](NC(=O)c4ccccc4)c4ccccc4)C(C)=C1C3(C)C)[C@]1(OC(C)=O)CO[C@@H]1C[C@@H]2O + Cc1cnc(CNC(=O)c2c(=O)c3ccc(N4CCCN(C)CC4)nc3n3c2sc2ccccc23)cn1
viability, T/C [1]: 50.2% | viability, T/C [2]: 37% | viability, T/C [3]: 45.2% | viability, T/C [4]: 41.3% | viability, T/C [5]: 43.7% | viability, T/C [6]: 43.2% | viability, T/C [7]: 48.4% | viability, T/C [8]: 54.9% | viability, T/C [9]: 44.5% | viability, T/C [10]: 49.9% | viability, T/C [11]: 53.2% | viability, T/C [12]: 51.7% | viability, T/C [13]: 49% | viability, T/C [14]: 67.9% | viability, T/C [15]: 45.9% | viability, T/C [16]: 39.1% | viability, T/C [17]: 51.2% | viability, T/C [18]: 49.6% | viability, T/C [19]: 52.1% | viability, T/C [20]: 59.9% | viability, T/C [21]: 53.2% | viability, T/C [22]: 50% | viability, T/C [23]: 50% | viability, T/C [24]: 50.9% | viability, T/C [25]: 46.9% | viability, T/C [26]: 38.8% | viability, T/C [27]: 43.2% | viability, T/C [28]: 34.5% | viability, T/C [29]: 40.4% | viability, T/C [30]: 44.5% | viability, T/C [31]: 0.38% | viability, T/C [32]: 19.7% | viability, T/C [33]: 0.53% | viability, T/C [34]: 0.57% | viability, T/C [35]: 10.9% | viability, T/C [36]: 12.1%

IC50 (second compound 0.0316 µM): 6.97 µM | IC50 (second compound 0.1 µM): 6.45 µM | IC50 (second compound 0.316 µM): 4.94 µM | IC50 (second compound 1 µM): 5.23 µM | IC50 (second compound 3.16 µM): 3.62 µM | IC50 (second compound 10 µM): < 0.0316 µM
SMILES: CCCS(=O)(=O)Nc1ccc(F)c(C(=O)c2c[nH]c3ncc(-c4ccc(Cl)cc4)cc23)c1F + Cc1cnc(CNC(=O)c2c(=O)c3ccc(N4CCCN(C)CC4)nc3n3c2sc2ccccc23)cn1
viability, T/C [1]: 92.8% | viability, T/C [2]: 96% | viability, T/C [3]: 113% | viability, T/C [4]: 92.5% | viability, T/C [5]: 109% | viability, T/C [6]: 26.9% | viability, T/C [7]: 77.7% | viability, T/C [8]: 81.5% | viability, T/C [9]: 60.7% | viability, T/C [10]: 65.6% | viability, T/C [11]: 92.2% | viability, T/C [12]: 34.4% | viability, T/C [13]: 59.4% | viability, T/C [14]: 82% | viability, T/C [15]: 74% | viability, T/C [16]: 62.3% | viability, T/C [17]: 65.7% | viability, T/C [18]: 27.3% | viability, T/C [19]: 64.5% | viability, T/C [20]: 70.7% | viability, T/C [21]: 62.3% | viability, T/C [22]: 65.6% | viability, T/C [23]: 73.8% | viability, T/C [24]: 27.7% | viability, T/C [25]: 59.9% | viability, T/C [26]: 47.5% | viability, T/C [27]: 48.4% | viability, T/C [28]: 61.5% | viability, T/C [29]: 65.6% | viability, T/C [30]: 0.38% | viability, T/C [31]: 33.5% | viability, T/C [32]: 32.5% | viability, T/C [33]: 18.7% | viability, T/C [34]: 24.7% | viability, T/C [35]: 40.9% | viability, T/C [36]: 0.26%
